In one assay the target is T1, PKM2, human recombinant (Homo sapiens, UniProt P14618).
T1 construct: purchased BPS 50295
Briefly: PKM2 enzymatic activity assay (Kinase-Glo Plus luminescence). In kind it is biochemical. The following applies: PKM2 activation; 0.1 nM PKM2, 0.1 mM ADP, 0.5 mM PEP, room temperature, 1 hour. As to the method:
PKM2 performs the following enzymatic reaction, where the PKM2 substrates, PEP (phosphoenolpyruvate) and ADP, are converted to pyruvate and ATP as follows: PEP+ADP→Pyruvate+ATP. All of the enzymatic reactions were conducted in duplicates at room temperature for 1 hour in a 50 μL mixture containing:
PKM2 assay buffer (50 mM Immidazole, pH 7.2; 7 mM MgCl2; 50 mM KCl; 0.01% Tween; and 0.05% BSA), 0.1 mM ADP, 0.5 mM PEP, 0.1 nM PKM2 enzyme (PKM2, human recombinant (BPS catalog number 50295)) and the indicated test compound.
Fructose 1,6 biphosphate, (FBP (Sigma)) was used as a positive control for activation at concentration of 0.5 mM. After enzymatic reactions, 50 μL of Kinase-Glo® Plus reagent (Promega kit) was added to each well and luminescence was measured using a BioTek Synergy™ 2 microplate reader.
PKM2 activity assays were performed in duplicates at each concentration. The luminescence data were analyzed using the computer software, GraphPad PRISM®. In the absence of the compound, the luminescence was defined as 0% activity. The percent activity in the presence of each compound was calculated according to the following equation: % Activity=[(L−Lb)/(Lt−Lb)−1]×100% where L=the luminescence in the presence of the test compound, Lb=the luminescence in the absence of PKM2, and Lt=the luminescence intensity in the absence of the test compound. The % activity values versus a series of compound concentrations were plotted using non-linear regression analysis of Sigmoidal dose-response curve generated with the equation Y=B+(T−B)/1+10^((LogEC50−X)×Hill Slope), where Y=percent activity, B=minimum percent activity, T=maximum percent activity, X=logarithm of compound and Hill Slope=slope factor or Hill coefficient. The EC50 value was determined for the indicated compounds as the concentration causing a half-maximal percent activity.

In assay [1] the test system is H1299 (Non small cell lung carcinoma cell line). Briefly: In vitro cell proliferation, Assay Protocol II (cell proliferation index, fluorescent membrane marker, flow cytometry). In kind it is cell-based. The following applies: Homo sapiens, NCI-H1299, as measured by Assay Protocol II. How it is done:
In a second assay to determine the inhibition of cell proliferation by a compound of the invention, cell proliferation of the cell line of interest was measured by a cell proliferation index assay using Fluofarma® based technology. This assay is based on the dilution rate of a fluorescent membrane marker, which is a direct function of the number of cell divisions. Briefly, the assay is performed by loading the cells with a non-toxic fluorescent phospholipid analog before the seeding. […] Flow cytometry analysis of the fluorescent probe is performed after the loading of the cells both prior to, as well as after treatment with various concentrations of the test compound. The dilution rate of the fluorescent probe at the single cell level is directly correlated to the number of cell divisions.

A short description of assay [2]: Cell proliferation and apoptosis over time (cell counts, caspase 3/7 assay), FIG. 3. It counts as cell-based. How it is done: Additionally, the effect of 5-((2,3-dihydrobenzo[b][1,4]dioxin-6-yl)sulfonyl)-2-methyl-1-(methylsulfonyl)indoline on cell proliferation and apoptosis was measured and the results are shown in FIG. 3.
For assay [3], the system named is Colo-205 (Colorectal cancer cell line). Nature of the assay: In vitro cell proliferation, Assay Protocol I (CellTiterGlo). It counts as cell-based. The conditions noted are these: Homo sapiens. As to the method: (§1) Growth inhibitory activity against the human tumor cell lines of compounds of the invention was determined using Promega's CellTiterGlo® assay. The cell lines of interest were placed in a 96-well microculture plate (Costar® white, flat bottom #3917) in a total volume of 90 μL/well. After 24 hours of incubation in a humidified incubator at 37° C. with 5% CO2 and 95% air, 10 μL of serially diluted test compounds in growth medium were added to each well. After 96 total hours of culture in a CO2 incubator, the plated cells and CellTiter-Glo® (Promega # G7571) reagents were brought to room temperature to equilibrate for 30 minutes. 100 μL of CellTiter-Glo® reagent was added to each well. The plate was shaken for 2 minutes and then left to equilibrate for 10 minutes before reading luminescence on the Tecan GENios microplate reader.
(§2) Percent inhibition of cell growth was calculated relative to untreated control wells. All tests were performed in triplicate for each concentration level. The IC50 value for the test compounds was estimated using Prism 3.03 by curve-fitting the data.

In assay [4] the test system is H1299 (Non small cell lung carcinoma cell line). Described as above. In kind it is cell-based. The following applies: Homo sapiens, NCI-H1299, 96 total hours of culture. As to the method:
as §1, §2

The subject of assay [5] is A549 (Non-small cell lung carcinoma cell line). The assay is described as above. In kind it is cell-based. The following applies: Homo sapiens. How it is done:
as §1, §2

In assay [6] the test system is HeLa (Cervical cancer cell line). The description is as above. It counts as cell-based. The conditions noted are these: Homo sapiens. As to the method: as §1, §2
Assay [7] deals with HT-29 (Colorectal cancer cell line). The assay is described as above. The following applies: Homo sapiens. In kind it is cell-based. How it is done:
as §1, §2

Assay [8] concerns 786-O (Renal cancer cell line). The description is as above. The conditions noted are these: Homo sapiens, 786-0. It counts as cell-based. As to the method: as §1, §2
The test system of assay [9] is HepG2 cancer cells (hepatocellular carcinoma cells). Briefly: Bioenergetic study, XF24 analyzer (OCR and ECAR). The following applies: HepG2 cells treated at 100 μM, recorded over an 8 hour period; FIG. 2. In kind it is cell-based. As to the method: Bioenergetic studies were performed using XF24 analyzer (Seahorse Bioscience). Oxygen Consumption Rate (OCR), a measure of mitochondrial oxydative phosphorylation, and Extra-Cellular Acidification Rate (ECAR), which represents glycolysis, were recorded over an 8 hour period for cells treated with various test compounds at 100 μM.

Molecules are shown by their SMILES. A value given as a limit tells only on which side of the number the result lay.

T1 sequence (P14618 whole entry): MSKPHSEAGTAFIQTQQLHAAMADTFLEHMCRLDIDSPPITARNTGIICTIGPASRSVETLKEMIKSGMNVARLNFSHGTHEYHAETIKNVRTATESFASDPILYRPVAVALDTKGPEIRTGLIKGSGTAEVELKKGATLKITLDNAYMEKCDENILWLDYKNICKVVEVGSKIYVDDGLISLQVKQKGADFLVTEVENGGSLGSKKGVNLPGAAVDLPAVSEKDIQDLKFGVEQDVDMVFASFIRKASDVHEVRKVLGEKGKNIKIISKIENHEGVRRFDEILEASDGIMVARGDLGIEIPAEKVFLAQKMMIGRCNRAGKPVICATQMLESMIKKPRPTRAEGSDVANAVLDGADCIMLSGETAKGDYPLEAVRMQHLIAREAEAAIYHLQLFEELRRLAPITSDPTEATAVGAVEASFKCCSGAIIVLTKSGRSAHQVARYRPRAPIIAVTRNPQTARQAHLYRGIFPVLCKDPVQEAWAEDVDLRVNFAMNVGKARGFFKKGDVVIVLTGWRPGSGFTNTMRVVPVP

Consider `CCN(c1ccc(S(=O)(=O)c2ccc3c(c2)OCCO3)cc1)S(C)(=O)=O` [Compound 24A], for which the EC50 on PKM2, human recombinant is 10 to 100 µM. On the same count and under the same terms, next, `CCN(c1ccc(S(=O)(=O)c2ccc3c(c2)OCCO3)c(C)c1)S(C)(=O)=O` [Compound 12A]: 1 to 10 µM.

In turn, `CS(=O)(=O)N1Cc2ccc(S(=O)(=O)c3ccc4c(c3)OCCO4)cc2C1` [Compound 6A, 5-((2,3-dihydrobenzo[b][1,4]dioxin-6-yl)sulfonyl)-2-(methylsulfonyl)isoindoline] had an IC50 in assay [1] of less than 20 µM.

Regarding `CC1Cc2cc(S(=O)(=O)c3ccc4c(c3)OCCO4)ccc2N1S(C)(=O)=O` (stereo not drawn) [Compound 2A, 5-((2,3-dihydrobenzo[b][1,4]dioxin-6-yl)sulfonyl)-2-methyl-1-(methylsulfonyl)indoline], the EC50 at PKM2, human recombinant fell in the range of 1 to 10 µM. The IC50 in [1] was less than 40 µM; in [3], less than 30 µM; in assay [4] it was less than 10 µM; in assay [5], less than 50 µM; in assay [6], less than 60 µM; in [7] it was more than 100 µM. This compound yielded an IC50 in assay [8] of less than 30 µM. Moreover, in assay [2] (FIG. 3, as a function of time after treatment), the “Effect on cell proliferation (cell counts)” value is listed as “induces a period of growth arrest”. For the same compound, in assay [2] (by day 15, FIG. 3), the “Cells that underwent apoptosis (caspase 3/7 assay)” value is on record as “up to 60%”. Further, the “Metabolic activity (OCR and ECAR)” value in assay [9] is “less metabolically active”. Take `Cc1cn(S(C)(=O)=O)c2ccc(S(=O)(=O)c3ccc4c(c3)OCCO4)cc12` [Compound 21A]: the EC50 on PKM2, human recombinant was in the range of 1 to 10 µM. As to `CC(=O)N1c2ccc(S(=O)(=O)c3ccc4c(c3)OCCO4)cc2CC1C` (stereo not drawn) [Compound 4A], on PKM2, human recombinant, the EC50 lay within 1 to 10 µM. Turning to `C[C@H]1Cc2cc(S(=O)(=O)c3ccc4c(c3)OCCO4)ccc2N1S(=O)(=O)Cc1ccccc1` [Compound 13A], the EC50 at PKM2, human recombinant lay within 1 to 10 µM. Consider `CS(=O)(=O)N1CCCc2cc(S(=O)(=O)c3ccc4c(c3)OCCO4)ccc21` [Compound 7A], for which the EC50 at PKM2, human recombinant is 1 to 10 µM. On the same count and under the same terms, with `CC1Cc2cc(S(=O)(=O)Nc3ccc4c(c3)OCCO4)ccc2N1S(C)(=O)=O` (stereo not drawn) [Compound 23A] the figure was 10 to 100 µM.

Consider `CS(=O)(=O)N1CCc2cc(S(=O)(=O)c3ccc4c(c3)OCCO4)ccc21` [Compound 11A, 5-((2,3-dihydrobenzo[b][1,4]dioxin-6-yl)sulfonyl)-1-(methylsulfonyl)indoline], for which the IC50 in assay [4] is less than 20 µM. With `CC(C)N(c1ccc(S(=O)(=O)c2ccc3c(c2)OCCO3)cc1)S(C)(=O)=O` [Compound 10A], the concentration giving a half-maximal response (EC50) at PKM2, human recombinant fell in the range of 1 to 10 µM.

The values above are taken from US8692001B2, “Sulfonamides for the modulation of PKM2” (Dynamix Pharmaceuticals Ltd., priority 2010, dated 2014).
